Measurements taken from PMC4821887, “Identification of chemicals that mimic transcriptional changes associated with autism, brain aging and neurodegeneration” (Nature Communications, 2016).

Tested on: mouse cortical cultures
Test: RNA-seq differential expression (DESeq) against matched vehicle
Type: cell-based
Set-up: key to MeanFenamidone Bcl11b / MeanFenamidone Slc12a4 / MeanFenamidone Abca1 / MeanFenamidone Hmox1 / MeanFenamidone Il1rap / MeanFenamidone Cyba / MeanFenamidone Narf / MeanFenamidone Bnip3 / MeanFenamidone Amotl2 / MeanFenamidone Gad2 / MeanFenamidone Vsnl1 / MeanFenamidone Fam178a: DESeq mean of counts over RefSeq exons
Method: Figure 4 Cluster 2 chemicals alter expression of a common set of genes. […] RNA-seq was performed in quadruplicate after treating cortical cultures with fenamidone (10 μM) or pyraclostrobin (0.1 μM) for 24 h (n=3 biological replicates) and compared with matched vehicle controls using DESeq to detect differentially expressed genes, listed in Supplementary Data 4.
Cultures were treated with the non-cytotoxic dose of each chemical, by exchanging half of the original medium with chemicals at 2 × concentration in prewarmed feeding medium, on DIV 7 for 24 h in 12-well plates at a density of 5 × 10^5 cells per well. RNA was isolated using RNeasy plus mini kit (Cat. #74134, Qiagen). […]. Samples were further assessed for quality using either an Agilent Bioanalyzer 2100 or TapeStation 2200 to obtain a RIN. RIN values exceeding 7 were used for sequencing. RNA samples were used to generate and barcode complementary DNA libraries using the TruSeq RNA Library Preparation Kit at the UNC High Throughput Sequencing Facility. Pools of 24 multiplexed samples were sequenced per lane on an Illumina HiSeq 2500 using 50-bp paired-end reads.
RNA-seq reads were filtered using TagDust and aligned to the reference mouse genome (mm9) with TopHat using default parameters. Reads aligning to ribosomal RNA genes were removed. Transcript abundance was estimated by computing Reads per kilobase per million mapped reads (RPKM) using RefSeq gene models aggregated by gene symbol. For differential expression analyses, raw counts over RefSeq exons were used, and then were compared across samples using DESeq[62].

## CSC1=N[C@@](C)(c2ccccc2)C(=O)N1Nc1ccccc1 [fenamidone]
Fenamidone 10 μM or pyraclostrobin 0.1 μM, 24 h
  Differentially expressed genes (DESeq) compared between the two fungicides: up- and downregulate a largely overlapping set of genes
Gene 2810011L19Rik, Fenamidone, 4 reps, vs matched vehicle
  MeanFenamidone (DESeq mean normalized counts): 45.3905
Gene 3632451O06Rik
  MeanFenamidone: 64.8489
  log2FoldChange: -1.594
Gene 4931428F04Rik
  MeanFenamidone: 315.322
  log2FoldChange: -1.331
Gene 4933426M11Rik
  MeanFenamidone: 495.966
  log2FoldChange: 1.2253
Gene 9930013L23Rik, DESeq mean, 4 reps
  MeanFenamidone 9930013L23Rik: 645.322
Gene 9930013L23Rik, vs vehicle, 4 reps
  log2FoldChange 9930013L23Rik: 2.2987
Gene AF357359, DESeq mean, 4 reps
  MeanFenamidone AF357359: 31.2414
Gene AF357359, vs vehicle, 4 reps
  log2FoldChange AF357359: -2.02
Gene Abca1, DESeq mean, 4 reps
  MeanFenamidone Abca1: 1327.24
Gene Abca1, vs vehicle, 4 reps
  log2FoldChange Abca1: 1.708
Gene Acadl, DESeq mean, 4 reps
  MeanFenamidone Acadl: 174.046
Gene Acadl, vs vehicle, 4 reps
  log2FoldChange Acadl: 2.185
Gene Acadvl, DESeq mean, 4 reps
  MeanFenamidone Acadvl: 272.079
Gene Acadvl, vs vehicle, 4 reps
  log2FoldChange Acadvl: 1.576
Gene Acsbg1, DESeq mean, 4 reps
  MeanFenamidone Acsbg1: 241.134
Gene Acsbg1, vs vehicle, 4 reps
  log2FoldChange Acsbg1: 1.737
Gene Acta2, DESeq mean, 4 reps
  MeanFenamidone Acta2: 2838.59
Gene Acta2, vs vehicle, 4 reps
  log2FoldChange Acta2: 3.4285
Gene Actn1, DESeq mean, 4 reps
  MeanFenamidone Actn1: 711.955
Gene Actn1, vs vehicle, 4 reps
  log2FoldChange Actn1: 2.284
Gene Adamts5, DESeq mean, 4 reps
  MeanFenamidone Adamts5: 85.7871
Gene Adamts5, vs vehicle, 4 reps
  log2FoldChange Adamts5: 2.142
Gene Adarb2, DESeq mean, 4 reps
  MeanFenamidone Adarb2: 8.295
Gene Adarb2, vs vehicle, 4 reps
  log2FoldChange Adarb2: -3.192
Gene Agap2, DESeq mean, 4 reps
  MeanFenamidone Agap2: 683.65
Gene Agap2, vs vehicle, 4 reps
  log2FoldChange Agap2: -1.416
Gene Ahnak, DESeq mean, 4 reps
  MeanFenamidone Ahnak: 1224
Gene Ahnak, vs vehicle, 4 reps
  log2FoldChange Ahnak: 2.684
Gene Ajuba, DESeq mean, 4 reps
  MeanFenamidone Ajuba: 246.575
Gene Ajuba, vs vehicle, 4 reps
  log2FoldChange Ajuba: 2.23
Gene Akap2
  MeanFenamidone: 757.95
  log2FoldChange: 1.126
Gene Aldh4a1, DESeq mean, 4 reps
  MeanFenamidone Aldh4a1: 305.431
Gene Aldh4a1, vs vehicle, 4 reps
  log2FoldChange Aldh4a1: 1.584
Gene Amotl1, DESeq mean, 4 reps
  MeanFenamidone Amotl1: 463.485
Gene Amotl1, vs vehicle, 4 reps
  log2FoldChange Amotl1: 1.802
Gene Amotl2, DESeq mean, 4 reps
  MeanFenamidone Amotl2: 666.038
Gene Amotl2, vs vehicle, 4 reps
  log2FoldChange Amotl2: 1.759
Gene Anxa2
  MeanFenamidone: 244.58
  log2FoldChange: 2.151
Gene Anxa3, DESeq mean, 4 reps
  MeanFenamidone Anxa3: 244.534
Gene Anxa3, vs vehicle, 4 reps
  log2FoldChange Anxa3: 3.475
Gene Arhgap18, DESeq mean, 4 reps
  MeanFenamidone Arhgap18: 128.165
Gene Arhgap18, vs vehicle, 4 reps
  log2FoldChange Arhgap18: 1.989
Gene Arhgdig
  MeanFenamidone: 118.591
  log2FoldChange: -1.355
Gene Arhgef40
  MeanFenamidone: 160.321
  log2FoldChange: 1.457
Gene Asah1, DESeq mean, 4 reps
  MeanFenamidone Asah1: 348.017
Gene Asah1, vs vehicle, 4 reps
  log2FoldChange Asah1: 1.772
Gene Ass1, DESeq mean, 4 reps
  MeanFenamidone Ass1: 83.2354
Gene Ass1, vs vehicle, 4 reps
  log2FoldChange Ass1: 3.013
Gene Atf3, DESeq mean, 4 reps
  MeanFenamidone Atf3: 64.246
Gene Atf3, vs vehicle, 4 reps
  log2FoldChange Atf3: 2.3746
Gene Atf5, DESeq mean, 4 reps
  MeanFenamidone Atf5: 765.032
Gene Atf5, vs vehicle, 4 reps
  log2FoldChange Atf5: 1.876
Gene Atl1, DESeq mean, 4 reps
  MeanFenamidone Atl1: 97.9838
Gene Atl1, vs vehicle, 4 reps
  log2FoldChange Atl1: -1.537
Gene Axl, DESeq mean, 4 reps
  MeanFenamidone Axl: 322.064
Gene Axl, vs vehicle, 4 reps
  log2FoldChange Axl: 2.208
Gene Bak1
  MeanFenamidone: 236.594
  log2FoldChange: 1.306
Gene Bcl11b, DESeq mean, 4 reps
  MeanFenamidone Bcl11b: 202.325
Gene Bcl11b, vs vehicle, 4 reps
  log2FoldChange Bcl11b: -1.501
Gene Bhlhe41, DESeq mean, 4 reps
  MeanFenamidone Bhlhe41: 115.206
Gene Bhlhe41, vs vehicle, 4 reps
  log2FoldChange Bhlhe41: 2.168
Gene Bmp1
  MeanFenamidone: 153.886
  log2FoldChange: 1.3853
Gene Bnip3, DESeq mean, 4 reps
  MeanFenamidone Bnip3: 102.453
Gene Bnip3, vs vehicle, 4 reps
  log2FoldChange Bnip3: -1.924
Gene Bnip3l
  MeanFenamidone: 236.54
  log2FoldChange: -1.119
Gene Bsn
  MeanFenamidone: 443.744
  log2FoldChange: -1.148
Gene Cad
  MeanFenamidone: 202.997
  log2FoldChange: 1.187
Gene Cadps
  MeanFenamidone: 260.197
  log2FoldChange: -1.6246
Gene Cald1, DESeq mean, 4 reps
  MeanFenamidone Cald1: 1843.23
Gene Cald1, vs vehicle, 4 reps
  log2FoldChange Cald1: 1.947
Gene Calm2
  MeanFenamidone: 809.868
  log2FoldChange: -1.097
Gene Camk2a, DESeq mean, 4 reps
  MeanFenamidone Camk2a: 319.844
Gene Camk2a, vs vehicle, 4 reps
  log2FoldChange Camk2a: -1.451
Gene Camk2n1
  MeanFenamidone: 296.66
  log2FoldChange: -1.023
Gene Camk4, DESeq mean, 4 reps
  MeanFenamidone Camk4: 490.278
Gene Camk4, vs vehicle, 4 reps
  log2FoldChange Camk4: -1.593
Gene Camta1, DESeq mean, 4 reps
  MeanFenamidone Camta1: 338.624
Gene Camta1, vs vehicle, 4 reps
  log2FoldChange Camta1: -1.578
Gene Caskin2, DESeq mean, 4 reps
  MeanFenamidone Caskin2: 130.097
Gene Caskin2, vs vehicle, 4 reps
  log2FoldChange Caskin2: 2.297
Gene Ccdc141, DESeq mean, 4 reps
  MeanFenamidone Ccdc141: 72.7622
Gene Ccdc141, vs vehicle, 4 reps
  log2FoldChange Ccdc141: 2.666
Gene Ccnd3, DESeq mean, 4 reps
  MeanFenamidone Ccnd3: 321.074
Gene Ccnd3, vs vehicle, 4 reps
  log2FoldChange Ccnd3: 1.783
Gene Ccng1, DESeq mean, 4 reps
  MeanFenamidone Ccng1: 4010.45
Gene Ccng1, vs vehicle, 4 reps
  log2FoldChange Ccng1: 1.5262
Gene Cd63, DESeq mean, 4 reps
  MeanFenamidone Cd63: 136.407
Gene Cd63, vs vehicle, 4 reps
  log2FoldChange Cd63: 2.342
Gene Cd68, DESeq mean, 4 reps
  MeanFenamidone Cd68: 127.152
Gene Cd68, vs vehicle, 4 reps
  log2FoldChange Cd68: 2.839
Gene Cd151, DESeq mean, 4 reps
  MeanFenamidone Cd151: 686.042
Gene Cd151, vs vehicle, 4 reps
  log2FoldChange Cd151: 1.998
Gene Cdc42ep1, DESeq mean, 4 reps
  MeanFenamidone Cdc42ep1: 242.014
Gene Cdc42ep1, vs vehicle, 4 reps
  log2FoldChange Cdc42ep1: 2.019
Gene Cdkl2, DESeq mean, 4 reps
  MeanFenamidone Cdkl2: 148.718
Gene Cdkl2, vs vehicle, 4 reps
  log2FoldChange Cdkl2: -1.498
Gene Cdkn1a, DESeq mean, 4 reps
  MeanFenamidone Cdkn1a: 1626.53
Gene Cdkn1a, vs vehicle, 4 reps
  log2FoldChange Cdkn1a: 1.6849
Gene Cercam
  MeanFenamidone: 80.354
  log2FoldChange: 1.731
Gene Chga
  MeanFenamidone: 168.446
  log2FoldChange: -1.21
Gene Chl1
  MeanFenamidone: 1683.83
  log2FoldChange: -1.224
Gene Ckb
  MeanFenamidone: 1311.75
  log2FoldChange: 1.6
Gene Clec7a
  MeanFenamidone: 31.0423
  log2FoldChange: 2.927
Gene Cln5, DESeq mean, 4 reps
  MeanFenamidone Cln5: 194.081
Gene Cln5, vs vehicle, 4 reps
  log2FoldChange Cln5: 2.017
Gene Cnr1, DESeq mean, 4 reps
  MeanFenamidone Cnr1: 426.988
Gene Cnr1, vs vehicle, 4 reps
  log2FoldChange Cnr1: -1.344
Gene Col4a5, DESeq mean, 4 reps
  MeanFenamidone Col4a5: 502.413
Gene Col4a5, vs vehicle, 4 reps
  log2FoldChange Col4a5: 2.312
Gene Col4a6
  MeanFenamidone: 110.458
  log2FoldChange: 2.156
Gene Col12a1, DESeq mean, 4 reps
  MeanFenamidone Col12a1: 444.559
Gene Col12a1, vs vehicle, 4 reps
  log2FoldChange Col12a1: 2.385
Gene Cpeb1, DESeq mean, 4 reps
  MeanFenamidone Cpeb1: 116.043
Gene Cpeb1, vs vehicle, 4 reps
  log2FoldChange Cpeb1: 2.171
Gene Csf1, DESeq mean, 4 reps
  MeanFenamidone Csf1: 1349.7
Gene Csf1, vs vehicle, 4 reps
  log2FoldChange Csf1: 2.395
Gene Csrnp3, DESeq mean, 4 reps
  MeanFenamidone Csrnp3: 419.96
Gene Csrnp3, vs vehicle, 4 reps
  log2FoldChange Csrnp3: -1.31
Gene Ctnna1, DESeq mean, 4 reps
  MeanFenamidone Ctnna1: 850.825
Gene Ctnna1, vs vehicle, 4 reps
  log2FoldChange Ctnna1: 1.929
Gene Ctsd, DESeq mean, 4 reps
  MeanFenamidone Ctsd: 3727.98
Gene Ctsd, vs vehicle, 4 reps
  log2FoldChange Ctsd: 1.609
Gene Ctsl, DESeq mean, 4 reps
  MeanFenamidone Ctsl: 1179.87
Gene Ctsl, vs vehicle, 4 reps
  log2FoldChange Ctsl: 1.543
Gene Cyba, DESeq mean, 4 reps
  MeanFenamidone Cyba: 37.6864
Gene Cyba, vs vehicle, 4 reps
  log2FoldChange Cyba: 3.26
Gene Cyr61, DESeq mean, 4 reps
  MeanFenamidone Cyr61: 1421.12
Gene Cyr61, vs vehicle, 4 reps
  log2FoldChange Cyr61: 2.66
Gene D130043K22Rik, DESeq mean, 4 reps
  MeanFenamidone D130043K22Rik: 33.8314
Gene D130043K22Rik, vs vehicle, 4 reps
  log2FoldChange D130043K22Rik: -1.82
Gene Daam2, DESeq mean, 4 reps
  MeanFenamidone Daam2: 263.262
Gene Daam2, vs vehicle, 4 reps
  log2FoldChange Daam2: 1.9757
Gene Darc
  MeanFenamidone: 104.469
  log2FoldChange: -1.472
